Assay results reported in the NIST ThermoML archive (doi:10.1021/acs.jced.8b00132).
Several values for one entry are separate records, joined by “and”; a condition that tells them apart may be missing. Identical values can stand only once.

O=C(C(F)(F)C(F)(F)F)C(F)(C(F)(F)F)C(F)(F)F [dodecafluoro-2-methylpentan-3-one]
Details	thermal conductivity
416.9 K, 36 kPa, Gas, hot wire	0.02006 W/m/K
416.9 K, 371 kPa, Gas, hot wire	0.0221 W/m/K
416.9 K, 588 kPa, Gas, hot wire	0.02223 W/m/K
416.9 K, 16292 kPa, Liquid, transient hot wire	0.05129 W/m/K
416.91 K, 372 kPa, Gas, hot wire	0.02173 W/m/K
416.94 K, 50897 kPa, Liquid, transient hot wire	0.06577 W/m/K
416.94 K, 50918 kPa, Liquid, transient hot wire	0.06559 W/m/K
416.96 K, 1022 kPa, Gas, transient hot wire	0.02164 W/m/K
416.96 K, 2206 kPa, Liquid, transient hot wire	0.04045 W/m/K
416.96 K, 24851 kPa, Liquid, transient hot wire	0.05549 W/m/K
416.96 K, 24868 kPa, Liquid, transient hot wire	0.05555 W/m/K
416.96 K, 35761 kPa, Liquid, transient hot wire	0.06013 W/m/K
416.97 K, 1022 kPa, Gas, transient hot wire	0.02164 W/m/K
416.97 K, 2207 kPa, Liquid, transient hot wire	0.04051 W/m/K
416.97 K, 35765 kPa, Liquid, transient hot wire	0.06009 W/m/K
416.98 K, 10573 kPa, Liquid, transient hot wire	0.04835 W/m/K
416.98 K, 10595 kPa, Liquid, transient hot wire	0.04788 W/m/K
417 K, 369 kPa, Gas, hot wire	0.0224 W/m/K
417 K, 1132 kPa, Gas, transient hot wire	0.02284 W/m/K
417.01 K, 369 kPa, Gas, hot wire	0.02218 W/m/K
417.01 K, 1132 kPa, Gas, transient hot wire	0.02288 W/m/K
417.02 K, 6421 kPa, Liquid, transient hot wire	0.04518 W/m/K
417.03 K, 36 kPa, Gas, hot wire	0.01958 W/m/K
417.04 K, 587 kPa, Gas, hot wire	0.0216 W/m/K
417.04 K, 6421 kPa, Liquid, transient hot wire	0.0448 W/m/K
417.05 K, 587 kPa, Gas, hot wire	0.02156 W/m/K
417.06 K, 16291 kPa, Liquid, transient hot wire	0.05136 W/m/K
417.06 K, 16299 kPa, Liquid, transient hot wire	0.05141 W/m/K
417.07 K, 1170 kPa, Liquid, transient hot wire	0.03917 W/m/K
417.07 K, 50875 kPa, Liquid, transient hot wire	0.06482 W/m/K
417.08 K, 3783 kPa, Liquid, transient hot wire	0.04192 W/m/K
417.08 K, 3784 kPa, Liquid, transient hot wire	0.04234 W/m/K
417.08 K, 50878 kPa, Liquid, transient hot wire	0.06554 W/m/K
417.11 K, 1022 kPa, Gas, transient hot wire	0.02183 W/m/K
417.11 K, 1023 kPa, Gas, transient hot wire	0.02181 W/m/K
417.11 K, 24870 kPa, Liquid, transient hot wire	0.05563 W/m/K
417.11 K, 35758 kPa, Liquid, transient hot wire	0.06018 W/m/K
417.11 K, 35760 kPa, Liquid, transient hot wire	0.06018 W/m/K
417.12 K, 368 kPa, Gas, hot wire	0.02238 W/m/K
417.12 K, 24862 kPa, Liquid, transient hot wire	0.05569 W/m/K
417.13 K, 2206 kPa, Liquid, transient hot wire	0.04049 W/m/K
417.13 K, 10587 kPa, Liquid, transient hot wire	0.0479 W/m/K
417.14 K, 36 kPa, Gas, hot wire	0.02006 W/m/K
417.15 K, 141 kPa, Gas, hot wire	0.02023 W/m/K and 0.0203 W/m/K
417.15 K, 588 kPa, Gas, hot wire	0.02157 W/m/K
417.15 K, 2206 kPa, Liquid, transient hot wire	0.04048 W/m/K
417.15 K, 10596 kPa, Liquid, transient hot wire	0.04784 W/m/K
417.16 K, 36 kPa, Gas, hot wire	0.01976 W/m/K
417.16 K, 367 kPa, Gas, hot wire	0.02181 W/m/K
417.16 K, 587 kPa, Gas, hot wire	0.02144 W/m/K
417.17 K, 1132 kPa, Gas, transient hot wire	0.02232 W/m/K
417.21 K, 6422 kPa, Liquid, transient hot wire	0.04496 W/m/K
417.21 K, 50843 kPa, Liquid, transient hot wire	0.06558 W/m/K
417.22 K, 6424 kPa, Liquid, transient hot wire	0.04481 W/m/K
417.22 K, 16290 kPa, Liquid, transient hot wire	0.05134 W/m/K
417.23 K, 16286 kPa, Liquid, transient hot wire	0.05137 W/m/K
417.23 K, 50866 kPa, Liquid, transient hot wire	0.06561 W/m/K
417.27 K, 36 kPa, Gas, hot wire	0.02022 W/m/K and 0.02032 W/m/K
417.28 K, 1023 kPa, Gas, transient hot wire	0.02198 W/m/K and 0.02197 W/m/K
417.28 K, 3783 kPa, Liquid, transient hot wire	0.04235 W/m/K
417.28 K, 3784 kPa, Liquid, transient hot wire	0.04243 W/m/K
417.28 K, 24853 kPa, Liquid, transient hot wire	0.0557 W/m/K
417.28 K, 24856 kPa, Liquid, transient hot wire	0.0557 W/m/K
417.28 K, 35752 kPa, Liquid, transient hot wire	0.06016 W/m/K
417.28 K, 35756 kPa, Liquid, transient hot wire	0.06019 W/m/K
417.29 K, 367 kPa, Gas, hot wire	0.02172 W/m/K
417.29 K, 996 kPa, Gas, transient hot wire	0.02211 W/m/K and 0.02184 W/m/K
417.31 K, 140 kPa, Gas, hot wire	0.02018 W/m/K
417.32 K, 140 kPa, Gas, hot wire	0.02001 W/m/K
417.32 K, 10582 kPa, Liquid, transient hot wire	0.04781 W/m/K
417.32 K, 10584 kPa, Liquid, transient hot wire	0.04786 W/m/K
417.33 K, 788 kPa, Gas, transient hot wire	0.02096 W/m/K
417.33 K, 791 kPa, Gas, transient hot wire	0.02134 W/m/K
417.33 K, 2205 kPa, Liquid, transient hot wire	0.04065 W/m/K
417.34 K, 2205 kPa, Liquid, transient hot wire	0.0406 W/m/K
417.36 K, 50814 kPa, Liquid, transient hot wire	0.06551 W/m/K
417.37 K, 50821 kPa, Liquid, transient hot wire	0.0652 W/m/K
417.39 K, 16280 kPa, Liquid, transient hot wire	0.05131 W/m/K
417.4 K, 6421 kPa, Liquid, transient hot wire	0.0453 W/m/K
417.4 K, 6422 kPa, Liquid, transient hot wire	0.04487 W/m/K
417.41 K, 597 kPa, Gas, transient hot wire	0.02073 W/m/K
417.42 K, 36 kPa, Gas, hot wire	0.02028 W/m/K and 0.02029 W/m/K
417.43 K, 595 kPa, Gas, transient hot wire	0.02069 W/m/K
417.43 K, 1024 kPa, Gas, transient hot wire	0.02226 W/m/K and 0.02228 W/m/K
